Target: T1, MAO-B (Homo sapiens, UniProt P27338)
T1 construct: from tissue; host or cells: whole body of living study subjects (in vivo); no isolated enzyme
T1 sequence (P27338 1-520): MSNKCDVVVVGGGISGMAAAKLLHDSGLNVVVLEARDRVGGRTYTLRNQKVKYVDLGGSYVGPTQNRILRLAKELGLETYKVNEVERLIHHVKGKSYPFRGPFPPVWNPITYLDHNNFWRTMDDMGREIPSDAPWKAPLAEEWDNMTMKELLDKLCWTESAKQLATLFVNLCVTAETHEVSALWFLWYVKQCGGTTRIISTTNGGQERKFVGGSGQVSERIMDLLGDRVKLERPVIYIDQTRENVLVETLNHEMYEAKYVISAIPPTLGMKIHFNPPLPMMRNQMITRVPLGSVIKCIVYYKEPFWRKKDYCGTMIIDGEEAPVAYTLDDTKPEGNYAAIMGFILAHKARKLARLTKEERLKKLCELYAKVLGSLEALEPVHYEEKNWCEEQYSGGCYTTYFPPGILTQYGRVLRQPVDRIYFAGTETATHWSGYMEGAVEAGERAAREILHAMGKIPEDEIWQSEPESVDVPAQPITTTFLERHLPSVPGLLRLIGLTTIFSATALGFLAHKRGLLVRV
Assay type: in vivo
Conditions: four pharmacokinetic studies

How did the “correlation of Log 10 plasma AUC with 24 hour cumulative urinary excretion of phenethylamine” value turn out when `C#CCN[C@H](C)Cc1ccccc1` [N-desmethylselegiline] was run?
The value was “no significant correlation”.

Reference: US9820937B2, “Pharmaceutical composition formulated for pre-gastric absorption of monoamine oxidase B inhibitors” (R.P. Scherer Technologies, LLC, priority 1997, dated 2017)
